Usually MIC stands for the lowest concentration found to suppress growth. Lower therefore signals greater potency.

In brackets after ≈: the same amount, converted by molar mass.

Assay type in all cases: functional
For one experiment, the system named is Staphylococcus aureus. Description: Antibacterial activity against Staphylococcus aureus ATCC 25923 after 18 to 25 hrs by serial plate dilution method.
The next experiment deals with Streptococcus pyogenes. Description: Antibacterial activity against Streptococcus pyogenes clinical isolate after 18 to 25 hrs by serial plate dilution method.
A further experiment deals with Pseudomonas aeruginosa. Description: Antibacterial activity against Pseudomonas aeruginosa ATCC 27853 after 18 to 25 hrs by serial plate dilution method.
The subject of another experiment is Klebsiella pneumoniae. Description: Antibacterial activity against Klebsiella pneumoniae clinical isolates after 18 to 25 hrs by serial plate dilution method.
The next experiment relates to Escherichia coli. Description: Antibacterial activity against Escherichia coli ATCC 25922 after 18 to 25 hrs by serial plate dilution method.
Experiment [1] deals with Mycobacterium tuberculosis. Description: Antimycobacterial activity against Mycobacterium tuberculosis H37Rv ATCC 27294 using compound level ranging from 1 to 100 ug/mL after 7 days by resazurin reduction test. The settings on record: H37Rv ATCC 27294, 168 h. On the technique in general: Alamar Blue is a resazurin reagent that responds to reducing activity.
Experiment [2] concerns Mycolicibacterium smegmatis. Description: Antimycobacterial activity against Mycobacterium smegmatis MC2 ATCC 19420 using compound level ranging from 1 to 100 ug/mL after 7 days by resazurin reduction test. Particulars: MC2 ATCC 19420, 168 h.
Experiment [3] has as its system Mycolicibacterium fortuitum. Description: Antimycobacterial activity against Mycobacterium fortuitum ATCC 19542 using compound level ranging from 1 to 100 ug/mL after 7 days by resazurin reduction test. Particulars: ATCC 19542, 168 h.
In experiment [4] the test system is Mycobacterium tuberculosis. Description: Growth inhibition of Mycobacterium tuberculosis H37Rv ATCC 27294 using compound level ranging from 1 to 100 ug/mL after 7 days by resazurin reduction test.
In experiment [5] the test system is Mycobacterium tuberculosis. Description: Antimycobacterial activity against Mycobacterium tuberculosis H37Rv ATCC 27294 using compound level ranging from 0.3125 to 5 ug/mL after 7 days by resazurin reduction test. The settings on record: H37Rv ATCC 27294, 168 h.
Experiment [6] relates to Mycolicibacterium smegmatis. Description: Antimycobacterial activity against Mycobacterium smegmatis MC2 ATCC 19420 using compound level ranging from 0.3125 to 5 ug/mL after 7 days by resazurin reduction test. Particulars: MC2 ATCC 19420, 168 h.
Experiment [7] has as its system Mycolicibacterium fortuitum. Description: Antimycobacterial activity against Mycobacterium fortuitum ATCC 19542 using compound level ranging from 0.3125 to 5 ug/mL after 7 days by resazurin reduction test. The settings on record: ATCC 19542, 168 h.

`Cc1cccc2c(/C=N/NC(=O)c3cnc4c(C(F)(F)F)cccc4c3O)c[nH]c12`: the MIC came out at 0.8 µg/mL (≈ 1.94 µM) against Staphylococcus aureus; 0.4 µg/mL (≈ 0.97 µM) against Streptococcus pyogenes; 0.4 µg/mL (≈ 0.97 µM) with Pseudomonas aeruginosa; 0.1 µg/mL (≈ 0.243 µM) in the experiment on Klebsiella pneumoniae; 0.1 µg/mL (≈ 0.243 µM) against Escherichia coli; 1 µg/mL (≈ 2.43 µM) in experiment [1]. In addition, the MIC came to 1 µg/mL (≈ 2.43 µM) in experiment [2]; 10 µg/mL (≈ 24.3 µM) in [3]; 0.625 µg/mL (≈ 1.52 µM) in [5]; 1.25 µg/mL (≈ 3.03 µM) in [6]; 10 µg/mL (≈ 24.3 µM) in [7]. For the same molecule, the “growth inhibition (GI)” value in experiment [4] was 95%.

`Cc1ccc(NC(=O)NNC(=O)c2cnc3c(C(F)(F)F)cccc3c2O)cc1`: the MIC in the experiment with Staphylococcus aureus was found to be 0.8 µg/mL (≈ 1.98 µM); against Streptococcus pyogenes, 0.4 µg/mL (≈ 0.989 µM); against Pseudomonas aeruginosa it was 0.8 µg/mL (≈ 1.98 µM); against Klebsiella pneumoniae it was 0.1 µg/mL (≈ 0.247 µM); in the experiment on Escherichia coli, 0.2 µg/mL (≈ 0.495 µM); in experiment [1] it was 1 µg/mL (≈ 2.47 µM). Moreover, the MIC is 10 µg/mL (≈ 24.7 µM) in experiment [2]; 10 µg/mL (≈ 24.7 µM) in [3]; 1.25 µg/mL (≈ 3.09 µM) in [5]; 10 µg/mL (≈ 24.7 µM) in [6]; 10 µg/mL (≈ 24.7 µM) in experiment [7]. For the same molecule, the “growth inhibition (GI)” value in [4] worked out at 90%.

With `COc1ccc2[nH]cc(/C=N/NC(=O)c3cnc4c(C(F)(F)F)cccc4c3O)c2c1`, the MIC amounted to 0.8 µg/mL (≈ 1.87 µM) against Staphylococcus aureus; 0.4 µg/mL (≈ 0.934 µM) against Streptococcus pyogenes; 0.4 µg/mL (≈ 0.934 µM) in the experiment with Pseudomonas aeruginosa; 0.1 µg/mL (≈ 0.233 µM) in the experiment on Klebsiella pneumoniae; 0.1 µg/mL (≈ 0.233 µM) with Escherichia coli; 1 µg/mL (≈ 2.33 µM) in [1]. Further, the minimal inhibitory concentration (MIC) in [2] was found to be 10 µg/mL (≈ 23.3 µM); in experiment [3] it was 10 µg/mL (≈ 23.3 µM); in [5], 0.625 µg/mL (≈ 1.46 µM); in experiment [6], 10 µg/mL (≈ 23.3 µM); in experiment [7], 10 µg/mL (≈ 23.3 µM). In [4], the “growth inhibition (GI)” value was 95%.

Regarding `COc1ccc(NC(=O)NNC(=O)c2cnc3c(C(F)(F)F)cccc3c2O)cc1`, the MIC in the experiment on Staphylococcus aureus was determined as 0.8 µg/mL (≈ 1.9 µM); in the experiment on Streptococcus pyogenes it was 0.4 µg/mL (≈ 0.952 µM); in the experiment on Pseudomonas aeruginosa it was 0.4 µg/mL (≈ 0.952 µM); in the experiment with Klebsiella pneumoniae, 0.1 µg/mL (≈ 0.238 µM); with Escherichia coli, 0.1 µg/mL (≈ 0.238 µM); in experiment [1] it was 1 µg/mL (≈ 2.38 µM). The MIC in experiment [2] was determined as 10 µg/mL (≈ 23.8 µM); in experiment [3], 10 µg/mL (≈ 23.8 µM); in experiment [5] it was 1.25 µg/mL (≈ 2.97 µM); in experiment [6], 10 µg/mL (≈ 23.8 µM); in experiment [7], 12.5 µg/mL (≈ 29.7 µM). In addition, the “growth inhibition (GI)” value in experiment [4] stood at 90%.

As for `Cn1cccc1/C=N\NC(=O)c1cnc2c(C(F)(F)F)cccc2c1O`, the MIC in the experiment with Staphylococcus aureus was determined as 0.8 µg/mL (≈ 2.21 µM); against Streptococcus pyogenes, 0.4 µg/mL (≈ 1.1 µM); against Pseudomonas aeruginosa it was 0.4 µg/mL (≈ 1.1 µM); in the experiment with Klebsiella pneumoniae it was 0.1 µg/mL (≈ 0.276 µM); in the experiment on Escherichia coli, 0.1 µg/mL (≈ 0.276 µM); in [1], 1 µg/mL (≈ 2.76 µM). Besides, the MIC is 1 µg/mL (≈ 2.76 µM) in experiment [2]; 10 µg/mL (≈ 27.6 µM) in [3]; 0.625 µg/mL (≈ 1.73 µM) in [5]; 1.25 µg/mL (≈ 3.45 µM) in experiment [6]; 10 µg/mL (≈ 27.6 µM) in experiment [7]. Further, the “growth inhibition (GI)” value in experiment [4] worked out at 90%.

For `COc1ccc(/C=N/NC(=O)c2cnc3c(C(F)(F)F)cccc3c2O)cc1`, the MIC was 0.8 µg/mL (≈ 2.05 µM) in the experiment with Staphylococcus aureus; 0.4 µg/mL (≈ 1.03 µM) in the experiment on Streptococcus pyogenes; 0.8 µg/mL (≈ 2.05 µM) in the experiment with Pseudomonas aeruginosa; 0.8 µg/mL (≈ 2.05 µM) with Klebsiella pneumoniae; 0.4 µg/mL (≈ 1.03 µM) against Escherichia coli; 1 µg/mL (≈ 2.57 µM) in experiment [1]. Further, the MIC in [2] stood at 10 µg/mL (≈ 25.7 µM); in [3], 10 µg/mL (≈ 25.7 µM); in experiment [5] it was 1.25 µg/mL (≈ 3.21 µM); in experiment [6], 10 µg/mL (≈ 25.7 µM); in experiment [7], 10 µg/mL (≈ 25.7 µM). Moreover, in [4], the “growth inhibition (GI)” value was 90%.

Regarding `O=C(NNC(=S)Nc1ccccc1F)c1cnc2c(C(F)(F)F)cccc2c1O`, the minimal inhibitory concentration (MIC) with Staphylococcus aureus came out at 0.8 µg/mL (≈ 1.89 µM); against Streptococcus pyogenes, 0.4 µg/mL (≈ 0.943 µM); in the experiment on Pseudomonas aeruginosa, 0.4 µg/mL (≈ 0.943 µM); against Klebsiella pneumoniae, 0.1 µg/mL (≈ 0.236 µM); against Escherichia coli, 0.1 µg/mL (≈ 0.236 µM); in experiment [1], 1 µg/mL (≈ 2.36 µM). Also, the MIC was 10 µg/mL (≈ 23.6 µM) in experiment [2]; 10 µg/mL (≈ 23.6 µM) in experiment [3]; 0.625 µg/mL (≈ 1.47 µM) in experiment [5]; 10 µg/mL (≈ 23.6 µM) in experiment [6]; 10 µg/mL (≈ 23.6 µM) in [7]. Further, the “growth inhibition (GI)” value in experiment [4] is 95%.

As for `O=C(N/N=C/c1cc(F)ccc1O)c1cnc2c(C(F)(F)F)cccc2c1O`, the MIC came to 0.8 µg/mL (≈ 2.03 µM) against Staphylococcus aureus; 0.8 µg/mL (≈ 2.03 µM) against Streptococcus pyogenes; 0.4 µg/mL (≈ 1.02 µM) against Pseudomonas aeruginosa; 0.1 µg/mL (≈ 0.254 µM) in the experiment on Klebsiella pneumoniae; 0.1 µg/mL (≈ 0.254 µM) against Escherichia coli; 10 µg/mL (≈ 25.4 µM) in experiment [1]. Moreover, the minimum inhibitory concentration (MIC) in experiment [2] is 10 µg/mL (≈ 25.4 µM); in experiment [3], 10 µg/mL (≈ 25.4 µM); in experiment [5] it was 2.5 µg/mL (≈ 6.36 µM); in experiment [6], 10 µg/mL (≈ 25.4 µM); in experiment [7], 10 µg/mL (≈ 25.4 µM). Moreover, in experiment [4], the “growth inhibition (GI)” value is recorded as less than 90%.

Take `Cc1[nH]cnc1/C=N/NC(=O)c1cnc2c(C(F)(F)F)cccc2c1O`: the minimum inhibitory concentration (MIC) was determined as 0.8 µg/mL (≈ 2.2 µM) in the experiment with Staphylococcus aureus; 1.6 µg/mL (≈ 4.4 µM) against Streptococcus pyogenes; 0.4 µg/mL (≈ 1.1 µM) in the experiment on Pseudomonas aeruginosa; 0.1 µg/mL (≈ 0.275 µM) against Klebsiella pneumoniae; 0.4 µg/mL (≈ 1.1 µM) in the experiment on Escherichia coli; 1 µg/mL (≈ 2.75 µM) in [1]. In addition, the minimal inhibitory concentration (MIC) in experiment [2] was 1 µg/mL (≈ 2.75 µM); in experiment [3], 10 µg/mL (≈ 27.5 µM); in experiment [5], 1.25 µg/mL (≈ 3.44 µM); in experiment [6], 1.25 µg/mL (≈ 3.44 µM); in [7], 12.5 µg/mL (≈ 34.4 µM). The “growth inhibition (GI)” value in experiment [4] stood at 90%.

These data come from ChEMBL document CHEMBL1909590, “Design, synthesis and docking studies of new quinoline-3-carbohydrazide derivatives as antitubercular agents” (2011).
